In patent US11564923B2, “Compounds and pharmaceutical compositions thereof for the treatment of inflammatory disorders” (Galapagos NV, priority 2017, dated 2023):

Key:
[1] = molecular target: T1, Recombinant human TYK2 catalytic domain (amino acids 871-1187) (Homo sapiens, UniProt P29597); assay: TYK2 ADPglo kinase assay; format: biochemical; further: 12 µM ATP
T1 construct: catalytic domain (amino acids 871-1187)
T1 sequence (P29597 871-1187): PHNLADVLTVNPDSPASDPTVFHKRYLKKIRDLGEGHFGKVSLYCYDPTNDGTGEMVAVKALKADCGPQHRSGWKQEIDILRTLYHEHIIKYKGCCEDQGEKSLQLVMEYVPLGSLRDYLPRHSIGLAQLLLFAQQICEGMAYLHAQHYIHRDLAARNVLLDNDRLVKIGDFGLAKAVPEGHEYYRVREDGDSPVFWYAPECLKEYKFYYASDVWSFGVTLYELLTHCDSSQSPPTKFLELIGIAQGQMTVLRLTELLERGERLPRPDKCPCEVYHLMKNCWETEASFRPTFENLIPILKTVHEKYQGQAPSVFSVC
Method: After 120 min at room temperature, reactions were stopped and the remaining ATP is depleted by adding 5 μL/well of ADP Glo Reagent (Promega, catalog number V912B). After 40 min at room temperature, 10 μl Kinase Detection Reagent (Kinase Detection Substrate (Promega, catalog number V914B) dissolved in Kinase Detection Buffer (Promega, catalog number V913B)) is added to convert ADP to ATP and to measure this newly synthesized ATP in a luciferase/luciferin reaction. Readout is performed after 30 min incubation at room temperature using the Envision. Kinase activity is calculated by subtracting the relative light units (RLU) obtained in the presence of a positive control inhibitor (10 μM staurosporine) from the RLU obtained in the presence of vehicle. The ability of a test compound to inhibit this activity (or percentage inhibition) is determined as:
RLU test compound=RLU determined for sample with test compound present
RLU control=RLU determined for sample with positive control inhibitor
RLU vehicle=RLU determined in the presence of vehicle
Dose dilution series were prepared for the compounds enabling the testing of dose-response effects in the TYK2 assay and the calculation of the IC50 for the compound. Each compound is routinely tested at concentration of 20 μM followed by a 1/5 serial dilution, 10 points in a final concentration of 1% DMSO. […] The data are expressed as the average IC50 from the assays.

[2] = system: IFNα activation of STAT1 in PBMC; assay: IFNα activation of STAT1 in PBMC; format: cell-based; conditions: Homo sapiens; IFNα activation of STAT1 in PBMC; average IC50; read-out: IFNα signaling inhibitory potency IC50
How it was run: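 Human PBMC, with red cells lysed by NH4Cl, were pre-treated with compound for 30 min at 37 °C and 5% CO2. They were then stimulated for 30 min with recombinant human IFNα at 5 ng/mL final.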

[3] = system: IL-12 activation of STAT4 in NK-92 cells; assay: IL-12 activation of STAT4 in NK-92 cells using AphaLISA SureFire technology; format: cell-based; conditions: Homo sapiens, NK92; IL-12 activation of STAT4 in NK-92 cells, AlphaLISA SureFire; average IC50; read-out: IL12 pSTAT4 IC50
How it was run: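 NK-92 cells, starved of rhIL-2 overnight, were stimulated with rhIL-12 for 30 min at 37 °C with test compounds, then lysed. Phospho-STAT4 (Tyr693) was read by AlphaLISA SureFire. Percent inhibition versus the vehicle-plus-trigger signal was fitted by sigmoidal nonlinear regression to give IC50, averaged over experiments.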

[4] = molecular target: T2, Recombinant human JAK2 (catalytic domain, amino acids 808-1132) (Homo sapiens, UniProt O60674); assay: JAK2 inhibition assay; format: biochemical; conditions: read-out: JAK2 potency IC50; further: 0.7 µM ATP
T2 construct: catalytic domain, amino acids 808-1132

[5] = system: IL-12 activation of STAT4 in NK-92 cells; assay: IL-12 activation of STAT4 in NK-92 cells using MSD as readout; format: cell-based; conditions: Homo sapiens, NK92; NK-92 cells, rhIL-12 25 ng/mL, MSD readout; read-out: IL12 pSTAT4 IC50
Method: IL-2 is added freshly to the medium with each medium refreshment step. Cells are cultured in a humidified incubator at 37° C. 5% CO2.
NK-92 cells are pre-incubated with test compounds or vehicle for 30 min at 37° C. 5% CO2. […] NK-92 cells are triggered with rhIL-12 for 45 min at 37° C. 5% CO2.
After 45 min of cytokine stimulation the cells are lysed by addition of 50 μL ice-cold lysis buffer (supplemented with the MSD kit). Plates are frozen at −80° C. for minimal 1 hour to lyse the cells completely. After thawing the levels of phospho-STAT4 are quantified using the Phospho-STAT4 (Tyr693) kit (MSD, Catalogue number K150PAD-2) according to the manufacturer's instructions. Electroluminescent signal is measured on the MSD reader.
The percentage inhibition is calculated as: […]
RLU (trigger/veh): Relative lumescent signal determined in presence of vehicle and trigger
RLU (test compound): Relative luminescent signal determined in presence of test compounds)
PIN values are plotted for compounds tested in dose-response and IC50 values are derived using LIMS Software applying non-linear regression (sigmoidal) curve fitting. The data are expressed as the average IC50 from different experiments.

[6] = molecular target: T1, Recombinant human TYK2 catalytic domain (amino acids 871-1187); assay: TYK2 radioactive assay polyGT substrate; format: biochemical; further: 0.1 µM ATP
How it was run: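 Reaction at 30° C. for 120 min, ended with 150 mM phosphoric acid, washed, counted; percent inhibition scaled between vehicle and 10 μM staurosporine cpm.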

[7] = molecular target: T3, Recombinant human JAK1 (catalytic domain, amino acids 866-1154) (Homo sapiens, UniProt P23458); assay: JAK1 inhibition assay; format: biochemical; conditions: read-out: JAK1 potency IC50
T3 construct: catalytic domain, amino acids 866-1154

[8] = molecular target: Recombinant human JAK3 catalytic domain (amino acids 781-1124) (Homo sapiens, UniProt P52333); assay: JAK3 inhibition assay; format: biochemical
How it was run: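 Radiometric kinase reaction run 45 min at 30° C., stopped with phosphoric acid; activity as vehicle cpm minus 10 μM staurosporine cpm.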

Chain of Recombinant human JAK3 catalytic domain (amino acids 781-1124) (P52333 781-1124): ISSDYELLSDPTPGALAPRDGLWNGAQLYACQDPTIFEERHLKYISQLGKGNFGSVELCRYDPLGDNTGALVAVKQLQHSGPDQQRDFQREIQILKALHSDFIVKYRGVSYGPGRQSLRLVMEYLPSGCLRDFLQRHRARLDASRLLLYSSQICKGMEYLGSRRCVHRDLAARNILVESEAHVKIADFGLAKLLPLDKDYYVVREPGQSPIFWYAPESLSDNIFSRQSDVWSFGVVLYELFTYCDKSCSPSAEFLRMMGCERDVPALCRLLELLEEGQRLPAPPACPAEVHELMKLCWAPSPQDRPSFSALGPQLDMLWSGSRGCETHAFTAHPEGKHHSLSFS
T3 sequence (P23458 866-1154): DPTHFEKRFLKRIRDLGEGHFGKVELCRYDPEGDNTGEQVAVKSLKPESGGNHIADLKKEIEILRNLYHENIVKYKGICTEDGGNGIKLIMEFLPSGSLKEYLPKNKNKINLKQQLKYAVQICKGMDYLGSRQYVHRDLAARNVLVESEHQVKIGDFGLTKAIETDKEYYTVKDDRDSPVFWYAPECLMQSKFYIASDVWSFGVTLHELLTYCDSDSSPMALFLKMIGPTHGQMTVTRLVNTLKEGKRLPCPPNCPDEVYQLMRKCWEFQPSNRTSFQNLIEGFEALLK
T2 sequence (O60674 808-1132): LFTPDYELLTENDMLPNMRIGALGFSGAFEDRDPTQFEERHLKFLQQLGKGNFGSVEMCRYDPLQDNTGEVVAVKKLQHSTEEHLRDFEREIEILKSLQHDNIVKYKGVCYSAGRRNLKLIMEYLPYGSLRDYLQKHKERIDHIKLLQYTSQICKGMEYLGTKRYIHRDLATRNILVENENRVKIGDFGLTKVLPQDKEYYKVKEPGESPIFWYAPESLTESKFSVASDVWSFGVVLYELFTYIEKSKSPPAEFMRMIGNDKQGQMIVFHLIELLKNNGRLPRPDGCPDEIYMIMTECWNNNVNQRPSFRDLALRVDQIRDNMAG

Structure (SMILES) | IC50 [1] | IC50 [3] | IC50 [4] | IC50 [5] | IC50 [6] | IC50 [7] | IC50 [8] | IC50 [2]
C[C@H](N(C)c1cc(Nc2cc(N)ncn2)c2ncn(C)c2n1)C(C)(C)C [Compound 12, N7-(6-aminopyrimidin-4-yl)-N5,3-dimethyl-N5-[(1S)-1,2,2-trimethylpropyl]imidazo[4,5-b]pyridine-5,7-diamine] |  |  | 3.04 nM | 540 nM | 1.42 nM | 26.9 nM | 36.7 nM | 25 nM
Cc1cc(C#N)ncc1Oc1cc(Nc2ccc(C(F)(F)F)cn2)c2ncn(C)c2n1 [Compound 59, 4-methyl-5-[3-methyl-7-[[5-(trifluoromethyl)-2-pyridyl]amino]imidazo[4,5-b]pyridin-5-yl]oxy-pyridine-2-carbonitrile] |  |  | 133 nM | 4720 nM | 69.2 nM | 461 nM | 3780 nM | 407 nM
Cc1cc(C#N)ncc1Oc1cc(Nc2ccc(S(C)(=O)=O)cn2)c2ncn(C)c2n1 [Compound 58, 4-methyl-5-[3-methyl-7-[(5-methylsulfonyl-2-pyridyl)amino]imidazo[4,5-b]pyridin-5-yl]oxy-pyridine-2-carbonitrile] |  |  | 35.5 nM | 595 nM | 7.42 nM | 97.8 nM | 1100 nM | 88 nM
CCNS(=O)(=O)c1ccc(Nc2cc(Oc3cnc(C#N)cc3C)nc3c2ncn3C)cc1 [Compound 53, 4-[[5-[(6-cyano-4-methyl-3-pyridyl)oxy]-3-methyl-imidazo[4,5-b]pyridin-7-yl]amino]-N-ethyl-benzenesulfonamide] |  |  | 72.7 nM | 409 nM | 9.22 nM | 68 nM | 495 nM | 119 nM
Cc1cc(C#N)ncc1Oc1cc(Nc2ccc(C(=O)NCC(C)O)nn2)c2ncn(C)c2n1 (centres unmarked) [Compound 25, 6-[5-(6-Cyano-4-methyl-pyridin-3-yloxy)-3-methyl-3H-imidazo[4,5-b]pyridin-7-ylamino]-pyridazine-3-carboxylic acid (2-hydroxy-propyl)-amide] |  |  | 78.3 nM | 1120 nM | 19.2 nM | 243 nM | 2300 nM | 198 nM
CN(c1cc(Nc2cc(N)ncn2)c2ncn(C)c2n1)C12CC(C1)C2 [Compound 18, N7-(6-Amino-pyrimidin-4-yl)-N5-bicyclo[1.1.1]pent-1-yl-3,N5-dimethyl-3H-imidazo[4,5-b]pyridine-5,7-diamine] |  |  | 31.5 nM | 4680 nM | 30.5 nM | 294 nM | 187 nM | 
CN(c1cc(Nc2cc(N)ncn2)c2ncn(C)c2n1)c1c(F)cc(C#N)cc1C1CC1 [Compound 14, 4-{[7-(6-Amino-pyrimidin-4-ylamino)-3-methyl-3H-imidazo[4,5-b]pyridin-5-yl]-methyl-amino}-3-cyclopropyl-5-fluoro-benzonitrile] |  |  | 17 nM | 1500 nM | 3.83 nM | 91.4 nM | 279 nM | 
Cc1cc(C#N)ncc1Oc1cc(Nc2ccc(S(=O)(=O)N3CCOCC3)cc2)c2ncn(C)c2n1 [Compound 63] |  |  | 70 nM | 1140 nM | 7.58 nM | 102 nM | 584 nM | 128 nM
CC1COCCC1N(C)c1cc(Nc2cc(N)ncn2)c2ncn(C)c2n1 (centres unmarked) [Compound 19, N7-(6-Amino-pyrimidin-4-yl)-3,N5-dimethyl-N5-(3-methyl-tetrahydro-pyran-4-yl)-3H-imidazo[4,5-b]pyridine-5,7-diamine] |  | 72 nM | 11.2 nM | 806 nM | 10.7 nM | 80.9 nM | 231 nM | 
CCNC(=O)c1ccc(Nc2cc(NC(C3CC3)C(F)(F)F)nc3c2ncn3C)cn1 (centres unmarked) [Compound 91, 5-[[5-[(1-cyclopropyl-2,2,2-trifluoro-ethyl)amino]-3-methyl-imidazo[4,5-b]pyridin-7-yl]amino]-N-ethyl-pyridine-2-carboxamide] |  |  | 42 nM | 3150 nM | 24.1 nM | 157 nM | 208 nM | 

The next lines start with results.

IC50 [1] | IC50 [3] | IC50 [4] | IC50 [5] | IC50 [6] | IC50 [7] | IC50 [8] | Structure (SMILES) | IC50 [2]
2.64 nM | 137 nM |  |  |  |  |  | Cc1cc(C#N)ncc1Oc1cc(Nc2ccc(N3CCOC(C)(C)C3)nn2)c2ncn(C)c2n1 [Compound 175, 5-[7-[[6-(2,2-dimethylmorpholin-4-yl)pyridazin-3-yl]amino]-3-methylimidazo[4,5-b]pyridin-5-yl]oxy-4-methylpyridine-2-carbonitrile] | 94 nM
2.55 nM | 88 nM |  |  |  |  |  | Cc1cc(C#N)ncc1Oc1cc(Nc2ccc(N3CCCOCC3)nn2)c2ncn(C)c2n1 [Compound 167, 4-methyl-5-[3-methyl-7-[[6-(1,4-oxazepan-4-yl)pyridazin-3-yl]amino]imidazo[4,5-b]pyridin-5-yl]oxypyridine-2-carbonitrile] | 129 nM
1.47 nM | 665 nM |  |  |  |  |  | Cc1cc(C#N)ncc1Oc1cc(Nc2ccc(N3CCOC(CO)C3)nn2)c2ncn(C)c2n1 (centres unmarked) [Compound 169, 5-[7-[[6-[2-(hydroxymethyl)morpholin-4-yl]pyridazin-3-yl]amino]-3-methylimidazo[4,5-b]pyridin-5-yl]oxy-4-methylpyridine-2-carbonitrile] | 147 nM
1.09 nM |  |  |  |  |  |  | Cc1cc(C#N)ncc1Oc1cc(Nc2ccc(N3CCO[C@H](CO)C3)nn2)c2ncn(C)c2n1 [Compound 165, 5-[7-[[6-[(2S)-2-(hydroxymethyl)morpholin-4-yl]pyridazin-3-yl]amino]-3-methylimidazo[4,5-b]pyridin-5-yl]oxy-4-methylpyridine-2-carbonitrile] | 
 |  | 66.7 nM | 248 nM | 18.3 nM | 234 nM | 2930 nM | CCNC(=O)c1ccc(Nc2cc(Oc3cnc(C#N)cc3C)nc3c2ncn3C)nn1 [Compound 23, 6-[5-(6-Cyano-4-methyl-pyridin-3-yloxy)-3-methyl-3H-imidazo[4,5-b]pyridin-7-ylamino]-pyridazine-3-carboxylic acid ethylamide] | 160 nM
1.06 nM |  |  |  |  |  |  | Cc1cc(C#N)ncc1Oc1cc(Nc2ccc(N3CCO[C@@H](CO)C3)nn2)c2ncn(C)c2n1 [Compound 163, 5-[7-[[6-[(2R)-2-(hydroxymethyl)morpholin-4-yl]pyridazin-3-yl]amino]-3-methylimidazo[4,5-b]pyridin-5-yl]oxy-4-methylpyridine-2-carbonitrile] | 
